{"source": "paper PMC12550276", "about": "(Life Science Alliance, 2025)", "key": {"REPh": {"target": "T1, REPh (Phrixothrix hirtus, UniProt Q9U4U7, L334R)", "T1 construct": "N-terminal His6-tag kept (no cleavage told), pET28b, E. coli BL21-CodonPlus-RIL; ~550 residues; higher oligomer by SEC (octamer in crystal)", "T1 sequence (Q9U4U7 1-546 L334R)": "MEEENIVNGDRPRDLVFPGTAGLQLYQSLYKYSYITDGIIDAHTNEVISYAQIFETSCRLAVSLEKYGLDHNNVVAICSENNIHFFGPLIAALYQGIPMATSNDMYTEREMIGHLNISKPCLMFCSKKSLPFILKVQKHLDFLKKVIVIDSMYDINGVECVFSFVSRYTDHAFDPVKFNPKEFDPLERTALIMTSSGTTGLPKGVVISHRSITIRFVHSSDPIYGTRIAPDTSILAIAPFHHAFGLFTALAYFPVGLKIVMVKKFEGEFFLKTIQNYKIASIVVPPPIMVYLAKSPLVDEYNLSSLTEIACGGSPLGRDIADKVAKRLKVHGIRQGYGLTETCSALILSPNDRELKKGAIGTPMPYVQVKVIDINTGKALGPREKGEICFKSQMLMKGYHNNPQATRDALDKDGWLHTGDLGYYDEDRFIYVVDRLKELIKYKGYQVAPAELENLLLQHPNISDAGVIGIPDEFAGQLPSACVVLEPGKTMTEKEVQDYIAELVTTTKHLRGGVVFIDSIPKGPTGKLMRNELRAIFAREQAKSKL", "experiment": "HDX-MS, apo vs ligand-bound", "type": "binding", "details": "5 mM ATP together with 5 mM luciferin (not separable), 50 mM MgCl2, pD 7.5, 25°C"}, "GBAv": {"target": "T2, GBAv (Amydetes, UniProt A0A3F2YLV6, R337L)", "T2 construct": "N-terminal His6-tag kept (no cleavage told), pET28b, E. coli BL21-CodonPlus-RIL; ~550 residues; monomer by SEC", "T2 sequence (A0A3F2YLV6 entry or part of it R337L)": "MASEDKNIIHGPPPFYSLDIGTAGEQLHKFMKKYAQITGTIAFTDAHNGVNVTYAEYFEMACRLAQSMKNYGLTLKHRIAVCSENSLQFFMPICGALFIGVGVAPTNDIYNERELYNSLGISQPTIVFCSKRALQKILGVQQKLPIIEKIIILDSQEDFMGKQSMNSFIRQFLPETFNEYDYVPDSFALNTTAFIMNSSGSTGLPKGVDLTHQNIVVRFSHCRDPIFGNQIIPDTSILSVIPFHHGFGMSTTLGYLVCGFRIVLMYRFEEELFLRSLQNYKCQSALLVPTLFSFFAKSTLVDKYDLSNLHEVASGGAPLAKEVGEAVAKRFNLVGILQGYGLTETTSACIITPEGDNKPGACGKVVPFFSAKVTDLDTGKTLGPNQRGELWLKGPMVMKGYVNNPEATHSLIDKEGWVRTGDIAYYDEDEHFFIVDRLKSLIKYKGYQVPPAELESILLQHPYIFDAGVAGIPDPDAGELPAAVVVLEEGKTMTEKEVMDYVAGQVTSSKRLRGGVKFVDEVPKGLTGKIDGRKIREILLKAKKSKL", "experiment": "HDX-MS, apo vs ligand-bound", "type": "binding", "details": "5 mM ATP together with 5 mM luciferin (not separable), 50 mM MgCl2, pD 7.5, 25°C"}}, "data": [{"smiles": "Nc1ncnc2c1ncn2[C@@H]1O[C@H](COP(=O)(O)OP(=O)(O)OP(=O)(O)O)[C@@H](O)[C@H]1O", "note": "[ATP]", "values": [{"measurement": "HDX-MS, apo vs ligand-bound", "setting": "REPh", "value": "Upon substrate binding, deuterium uptake by peptides-2 and -3 decreased in all variants"}, {"measurement": "HDX-MS, apo vs ligand-bound", "setting": "GBAv", "value": "Upon substrate binding, deuterium uptake by peptides-2 and -3 decreased in all variants"}]}]}
